Where two headings read alike, the source gives them in different places.
Target: T1, Human Factor XIIa (Homo sapiens, UniProt P00748)
T1 construct: purchased Enzyme Research Laboratories
T1 sequence (P00748 373-615 limits assumed): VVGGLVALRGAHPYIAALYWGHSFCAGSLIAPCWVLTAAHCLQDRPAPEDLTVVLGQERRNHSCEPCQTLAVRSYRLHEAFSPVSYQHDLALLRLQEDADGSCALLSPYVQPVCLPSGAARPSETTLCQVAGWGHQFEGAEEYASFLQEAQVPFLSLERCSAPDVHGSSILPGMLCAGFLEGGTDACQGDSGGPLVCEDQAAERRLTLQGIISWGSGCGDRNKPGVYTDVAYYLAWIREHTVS
Assay: Factor XIIa inhibitory activity in vitro (fluorogenic substrate H-DPro-Phe-Arg-AFC)
Assay type: biochemical
Conditions: 25° C., read-out: Human FXIIa IC50
Procedure: Determination of the % Inhibition for FXIIa
Human Factor XIIa (Enzyme Research Laboratories) was incubated at 25° C. with the fluorogenic substrate H-DPro-Phe-Arg-AFC and various concentrations of the test compound. Residual enzyme activity (initial rate of reaction) was determined by measuring the change in […] at 410 nm and the IC50 value for the test compound was determined.

Structure (SMILES): Nc1nccc2cc(CNC(=O)[C@H](Cc3ccc(F)c(F)c3)NC(=O)c3ccn[nH]3)ccc12 [Example 0.29]
- IC50 (class symbols): 3 to 10 µM

Structure (SMILES): Nc1nccc2cc(CNC(=O)[C@H](Cc3ccc(F)c(F)c3)NC(=O)c3ccno3)ccc12 [Example 0.30]
- IC50 (class symbols): 10 to 40 µM

Structure (SMILES): Nc1nccc2cc(CNC(=O)[C@H](Cc3ccc(F)c(F)c3)NC(=O)c3ccc4ncccc4n3)ccc12 [Example 0.31]
- IC50 (class symbols): 10 to 40 µM

Structure (SMILES): COc1cc(C(=O)N[C@@H](Cc2ccc(F)c(F)c2)C(=O)NCc2ccc3c(N)nccc3c2)on1 [Example 0.32]
- IC50 (class symbols): 3 to 10 µM

Structure (SMILES): Nc1nccc2cc(CNC(=O)[C@H](Cc3ccc(F)c(F)c3)NC(=O)c3cscn3)ccc12 [Example 0.33]
- IC50 (class symbols): 3 to 10 µM

Structure (SMILES): Nc1nccc2cc(CNC(=O)[C@H](Cc3ccc(F)c(F)c3)NC(=O)c3ccccc3)ccc12 [Example 0.34]
- IC50 (class symbols): 10 to 40 µM

Structure (SMILES): Nc1nccc2cc(CNC(=O)[C@H](Cc3ccc(F)c(F)c3)NC(=O)c3ccncc3)ccc12 [Example 0.35]
- IC50 (class symbols): 10 to 40 µM

Structure (SMILES): Cc1cc2ncc(C(=O)N[C@@H](Cc3ccc(F)c(F)c3)C(=O)NCc3ccc4c(N)nccc4c3)c(C)n2n1 [Example 0.36]
- IC50 (class symbols): 3 to 10 µM

Structure (SMILES): Nc1nccc2cc(CNC(=O)[C@H](Cc3ccc(F)c(F)c3)NC(=O)c3cnc4n(c3=O)CCS4)ccc12 [Example 0.37]
- IC50 (class symbols): 1 to 3 µM

Structure (SMILES): CC(C)n1nnc2cc(C(=O)N[C@@H](Cc3ccc(F)c(F)c3)C(=O)NCc3ccc4c(N)nccc4c3)ccc21 [Example 0.38]
- IC50 (class symbols): 10 to 40 µM

Structure (SMILES): Nc1nccc2cc(CNC(=O)[C@H](Cc3ccc(F)c(F)c3)NC(=O)COCc3ccccc3)ccc12 [Example 0.39]
- IC50 (class symbols): 10 to 40 µM

Structure (SMILES): Nc1nccc2cc(CNC(=O)[C@H](Cc3ccc(F)c(F)c3)NC(=O)c3ccc4ncsc4c3)ccc12 [Example 0.40]
- IC50 (class symbols): 10 to 40 µM

Structure (SMILES): Nc1nccc2cc(CNC(=O)[C@H](Cc3ccc(F)c(F)c3)NC(=O)CCS(=O)(=O)c3ccccc3)ccc12 [Example 0.41]
- IC50 (class symbols): 3 to 10 µM

Structure (SMILES): COc1ncccc1C(=O)N[C@@H](Cc1ccc(F)c(F)c1)C(=O)NCc1ccc2c(N)nccc2c1 [Example 0.42]
- IC50 (class symbols): 10 to 40 µM

Structure (SMILES): CN1CCC(C(=O)N[C@@H](Cc2ccc(F)c(F)c2)C(=O)NCc2ccc3c(N)nccc3c2)CC1 [Example 0.43]
- IC50 (class symbols): 3 to 10 µM

Structure (SMILES): Nc1nccc2cc(CNC(=O)[C@H](Cc3ccc(F)c(F)c3)NC(=O)C3=CCC(=O)NN3)ccc12 [Example 0.44]
- IC50 (class symbols): 3 to 10 µM

Structure (SMILES): Nc1nccc2cc(CNC(=O)[C@H](Cc3ccc(F)c(F)c3)NC(=O)c3cccnc3N3CCOCC3)ccc12 [Example 0.45]
- IC50 (class symbols): 10 to 40 µM

Structure (SMILES): Nc1nccc2cc(CNC(=O)[C@H](Cc3ccc(F)c(F)c3)NC(=O)CCc3ccccc3)ccc12 [Example 0.46]
- IC50 (class symbols): 10 to 40 µM

Structure (SMILES): CS(=O)(=O)c1cccc(C(=O)N[C@@H](Cc2ccc(F)c(F)c2)C(=O)NCc2ccc3c(N)nccc3c2)c1 [Example 0.47]
- IC50 (class symbols): 3 to 10 µM

Structure (SMILES): Nc1nccc2cc(CNC(=O)[C@H](Cc3ccc(F)c(F)c3)NC(=O)c3cc4ccccc4o3)ccc12 [Example 0.48]
- IC50 (class symbols): 10 to 40 µM

Structure (SMILES): Nc1nccc2cc(CNC(=O)[C@H](Cc3ccc(F)c(F)c3)NC(=O)c3ccc(F)c(F)c3)ccc12 [Example 0.49]
- IC50 (class symbols): 10 to 40 µM

Structure (SMILES): Cc1cccnc1C(=O)N[C@@H](Cc1ccc(F)c(F)c1)C(=O)NCc1ccc2c(N)nccc2c1 [Example 0.50]
- IC50 (class symbols): 3 to 10 µM

Structure (SMILES): Nc1nccc2cc(CNC(=O)[C@H](Cc3ccc(F)c(F)c3)NC(=O)CCc3nnc(-c4ccccc4)o3)ccc12 [Example 0.51]
- IC50 (class symbols): 10 to 40 µM

Structure (SMILES): Cn1cc(C(=O)N[C@@H](Cc2ccc(F)c(F)c2)C(=O)NCc2ccc3c(N)nccc3c2)ccc1=O [Example 0.52]
- IC50 (class symbols): 3 to 10 µM

Structure (SMILES): Cc1nc2ccccn2c1C(=O)N[C@@H](Cc1ccc(F)c(F)c1)C(=O)NCc1ccc2c(N)nccc2c1 [Example 0.53]
- IC50 (class symbols): 10 to 40 µM

Structure (SMILES): CC(C)c1cc(C(=O)N[C@@H](Cc2ccc(F)c(F)c2)C(=O)NCc2ccc3c(N)nccc3c2)[nH]n1 [Example 0.54]
- IC50 (class symbols): 3 to 10 µM

Structure (SMILES): CCn1nc(C)cc1C(=O)N[C@@H](Cc1ccc(F)c(F)c1)C(=O)NCc1ccc2c(N)nccc2c1 [Example 0.55]
- IC50 (class symbols): 10 to 40 µM

Structure (SMILES): Nc1nccc2cc(CNC(=O)[C@H](Cc3ccc(F)c(F)c3)NC(=O)C3CCC(O)CC3)ccc12 (stereo partly drawn) [Example 0.56]
- IC50 (class symbols): 10 to 40 µM

Structure (SMILES): Nc1nccc2cc(CNC(=O)[C@H](Cc3ccc(F)c(F)c3)NC(=O)c3cccc(O)n3)ccc12 [Example 0.57]
- IC50 (class symbols): 1 to 3 µM

Structure (SMILES): COc1cc(C(=O)N[C@@H](Cc2ccc(F)c(F)c2)C(=O)NCc2ccc3c(N)nccc3c2)ccc1F [Example 0.58]
- IC50 (class symbols): 3 to 10 µM

Structure (SMILES): Nc1nccc2cc(CNC(=O)[C@H](Cc3ccc(F)c(F)c3)NC(=O)c3cc(CO)ccn3)ccc12 [Example 0.59]
- IC50 (class symbols): 3 to 10 µM

Structure (SMILES): CNS(=O)(=O)c1cccc(C(=O)N[C@@H](Cc2ccc(F)c(F)c2)C(=O)NCc2ccc3c(N)nccc3c2)c1 [Example 0.60]
- IC50 (class symbols): 3 to 10 µM

Structure (SMILES): Nc1nccc2cc(CNC(=O)[C@H](Cc3ccc(F)c(F)c3)NC(=O)c3c[nH]nc3C3CC3)ccc12 [Example 0.61]
- IC50 (class symbols): 10 to 40 µM

Structure (SMILES): Nc1nccc2cc(CNC(=O)[C@H](Cc3ccc(F)c(F)c3)NC(=O)c3ccc(O)nc3)ccc12 [Example 0.62]
- IC50 (class symbols): 3 to 10 µM

Structure (SMILES): Cc1nc(C(F)(F)F)ccc1C(=O)N[C@@H](Cc1ccc(F)c(F)c1)C(=O)NCc1ccc2c(N)nccc2c1 [Example 0.63]
- IC50 (numeric bound instead of class symbol): > 12.7 µM

Structure (SMILES): Nc1nccc2cc(CNC(=O)[C@H](Cc3ccc(F)c(F)c3)NC(=O)c3cn[nH]c3)ccc12 [Example 0.65]
- IC50 (class symbols): 10 to 40 µM

Structure (SMILES): Nc1nccc2cc(CNC(=O)[C@H](Cc3ccc(F)c(F)c3)NC(=O)C(F)F)ccc12 [Example 0.66]
- IC50 (class symbols): 3 to 10 µM

Structure (SMILES): Nc1nccc2cc(CNC(=O)[C@H](Cc3ccc(F)c(F)c3)NC(=O)c3ccc(Cn4cnnn4)cc3)ccc12 [Example 0.67]
- IC50 (class symbols): 1 to 3 µM

Structure (SMILES): Nc1nccc2cc(CNC(=O)[C@H](Cc3ccc(F)c(F)c3)NC(=O)c3cccc(Cn4cccn4)c3)ccc12 [Example 0.68]
- IC50 (class symbols): 10 to 40 µM

Structure (SMILES): Cn1cncc1C(=O)N[C@@H](Cc1ccc(F)c(F)c1)C(=O)NCc1ccc2c(N)nccc2c1 [Example 0.69]
- IC50 (class symbols): 10 to 40 µM

Structure (SMILES): CCCn1ncc(C(=O)N[C@@H](Cc2ccc(F)c(F)c2)C(=O)NCc2ccc3c(N)nccc3c2)c1C [Example 0.70]
- IC50 (class symbols): 10 to 40 µM

Structure (SMILES): Nc1nccc2cc(CNC(=O)[C@H](Cc3ccc(F)c(F)c3)NC(=O)c3ccncn3)ccc12 [Example 0.71]
- IC50 (class symbols): 3 to 10 µM

Structure (SMILES): Nc1nccc2cc(CNC(=O)[C@H](Cc3ccc(F)c(F)c3)NC(=O)C3(C(F)(F)F)CC3)ccc12 [Example 0.72]
- IC50 (class symbols): 10 to 40 µM

Structure (SMILES): Nc1nccc2cc(CNC(=O)[C@H](Cc3ccc(F)c(F)c3)NC(=O)c3cc(F)cc(F)c3)ccc12 [Example 0.73]
- IC50 (class symbols): 10 to 40 µM

Structure (SMILES): Nc1nccc2cc(CNC(=O)[C@H](Cc3ccc(F)c(F)c3)NC(=O)c3nc4ccccc4[nH]c3=O)ccc12 [Example 0.74]
- IC50 (class symbols): 10 to 40 µM

Structure (SMILES): CC(C)c1cc(C(=O)N[C@@H](Cc2ccc(F)c(F)c2)C(=O)NCc2ccc3c(N)nccc3c2)no1 [Example 0.75]
- IC50 (class symbols): 3 to 10 µM

Structure (SMILES): Nc1nccc2cc(CNC(=O)[C@H](Cc3ccc(F)c(F)c3)NC(=O)c3ccc4c(c3)CC=C(O)N4)ccc12 [Example 0.76]
- IC50 (class symbols): 10 to 40 µM

Structure (SMILES): Nc1nccc2cc(CNC(=O)[C@H](Cc3ccc(F)c(F)c3)NC(=O)c3ccsc3)ccc12 [Example 0.77]
- IC50 (class symbols): 10 to 40 µM

Structure (SMILES): Nc1nccc2cc(CNC(=O)[C@H](Cc3ccc(F)c(F)c3)NC(=O)c3ccco3)ccc12 [Example 0.78]
- IC50 (class symbols): 3 to 10 µM

Structure (SMILES): CCCc1cc(C(=O)N[C@@H](Cc2ccc(F)c(F)c2)C(=O)NCc2ccc3c(N)nccc3c2)nn1C [Example 0.79]
- IC50 (class symbols): 3 to 10 µM

Structure (SMILES): Nc1nccc2cc(CNC(=O)[C@H](Cc3ccc(F)c(F)c3)NC(=O)c3nccc4ccccc34)ccc12 [Example 0.80]
- IC50 (class symbols): 10 to 40 µM

From US20220298138A1, “ENZYME INHIBITORS” (KALVISTA PHARMACEUTICALS LIMITED, priority 2019, published 2022)
